Laboratory results taken from patent US10464890B2, “PGAM1 inhibitors and methods related thereto” (Emory University, priority 2011, dated 2019).

Tests used:
[1] = molecular target: T1, 6PGD (H1299 cell lysates or recombinant 6PGD) (Homo sapiens, UniProt P52209); assay: 6PGD enzyme assay; format: biochemical
T1 construct: endogenous in cells; host or cells: H1299 cell lysates; part of the results with recombinant 6PGD of unstated origin
T1 sequence (P52209 1-483): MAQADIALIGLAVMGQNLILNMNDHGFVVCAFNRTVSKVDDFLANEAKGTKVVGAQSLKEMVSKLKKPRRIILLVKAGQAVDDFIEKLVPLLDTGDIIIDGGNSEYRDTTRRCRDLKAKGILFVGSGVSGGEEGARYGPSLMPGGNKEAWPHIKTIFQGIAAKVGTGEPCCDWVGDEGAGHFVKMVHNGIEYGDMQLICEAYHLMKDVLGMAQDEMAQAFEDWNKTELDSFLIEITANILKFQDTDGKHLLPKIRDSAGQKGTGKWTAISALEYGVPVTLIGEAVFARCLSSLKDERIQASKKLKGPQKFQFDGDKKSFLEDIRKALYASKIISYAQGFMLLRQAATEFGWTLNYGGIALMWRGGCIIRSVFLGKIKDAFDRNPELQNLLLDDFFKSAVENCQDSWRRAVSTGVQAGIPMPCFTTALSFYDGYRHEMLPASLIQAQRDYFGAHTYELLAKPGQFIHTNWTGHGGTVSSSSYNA
Method: (§1) G6PD activity was determined by the NADPH production rate from G6PD and 6PGD, then subtracting that of 6PGD, since a product of G6PD, 6-phosphogluconolactone, is rapidly hydrolyzed to a substrate of 6PGD, 6-phosphogluconate, in cells. To obtain the combined dehydrogenase activity, substrates for both dehydrogenase enzymes were added to a cuvette. In another cuvette, substrates for the second enzyme, 6PGD, were added to obtain the activity of this enzyme. Substrate concentrations were as follows: 0.2 mM glucose 6-phosphate, 0.2 mM 6-phosphogluconate, and 0.1 mM NADP^+. 10 μg of cell lysates or 1 μg of recombinant protein were added to a cuvette containing buffer (50 mM Tris, 1 mM MgCl2, pH 8.1) and then the reaction was initiated by NADP^+. The increase of absorbance at 341 nm was measured by a DU800 spectrophotometer (Beckman).

[2] = molecular target: T2, PHGDH (PGAM1 knockdown cell lysates or recombinant PHGDH) (Homo sapiens, UniProt O43175); assay: PHGDH enzyme assay; format: biochemical
T2 construct: endogenous in cells; also recombinant rPHGDH of unstated origin
T2 sequence (O43175 1-533): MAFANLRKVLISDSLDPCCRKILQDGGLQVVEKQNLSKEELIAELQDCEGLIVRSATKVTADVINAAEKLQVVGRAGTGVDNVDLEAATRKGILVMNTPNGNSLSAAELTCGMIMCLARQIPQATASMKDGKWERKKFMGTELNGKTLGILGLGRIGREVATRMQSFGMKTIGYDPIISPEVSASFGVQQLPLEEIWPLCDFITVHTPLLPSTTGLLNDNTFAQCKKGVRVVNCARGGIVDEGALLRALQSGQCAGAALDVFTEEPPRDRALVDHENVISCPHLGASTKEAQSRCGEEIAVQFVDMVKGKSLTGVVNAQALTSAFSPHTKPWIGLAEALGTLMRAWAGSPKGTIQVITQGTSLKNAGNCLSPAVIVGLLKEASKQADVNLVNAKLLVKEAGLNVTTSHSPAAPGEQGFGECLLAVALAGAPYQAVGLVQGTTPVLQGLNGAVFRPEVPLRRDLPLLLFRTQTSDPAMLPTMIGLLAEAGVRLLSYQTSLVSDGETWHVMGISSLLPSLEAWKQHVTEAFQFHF
Method: PHGDH activity was spectrophotometrically measured as described previously. PHGDH enzyme buffer containing 200 mM Tris-HCl (pH8.1), 400 mM KCl, 0.6 mM NAD, 2 mM GSH, 10 mM EDTA was mixed with cell lysates or recombinant PHGDH protein. The reaction was initiated by the addition of 3-PG to a final concentration of 10 mM and followed by measuring the increase in absorbance at 340 nm over a 10 min period.

6PGD = molecular target: T3, 6PGD (Homo sapiens, UniProt P52209); format: binding
T3 sequence (P52209 1-483): T1 sequence (P52209 1-483)
Method: In brief, thermal shift assay of compound-protein interaction was performed in 384-well PCR plates with various compound concentrations and 200 μg/ml protein in a buffer solution (20 mM Tris-HCl, 100 mM NaCl, pH 7.4). SYPRO orange was used as a dye to monitor the fluorescence change at 610 nm. Small molecules were dissolved in DMSO and added to protein solution. Final DMSO concentration of solution is 1%. Dissociation constants (Kds) for protein-ligand interaction were calculated using the method as described.
The fluorescence intensity data were fitted to Eq. (1) to obtain ΔHu, ΔCpu, and Tm by nonlinear regression using the program Prism:
The thermal unfolding parameters for 6PGD and PGAM1 alone were determined from 4 control wells, each containing 0.2 mg/mL protein.

[3] = molecular target: T4, G6PD (H1299 cell lysates or rG6PD) (Homo sapiens, UniProt P11413); assay: G6PD enzyme assay; format: biochemical; conditions: increasing concentrations of 3-PG
T4 construct: endogenous in cells; host or cells: H1299 cell lysates; also recombinant rG6PD of unstated origin
Method: as §1

[4] = system: Y26 phosphorylation of PGAM1; assay: PGAM1 Y26 phosphorylation in human cancer cell lines; format: cell-based; conditions: pertinent human cancer cell lines (KG1a, HEL)
PGAM1 = PGAM1 (Homo sapiens, UniProt P18669); conditions: cited from earlier work
[5] = molecular target: T5, purified human PGAM1 proteins (recombinant PGAM1) (Homo sapiens, UniProt P18669); assay: In vitro PGAM1 enzyme assay (coupled enolase/PKM1/LDH, NADH oxidation); format: biochemical; conditions: for relative PGAM1 inhibitory potency in vitro: purified recombinant PGAM1, comparison among alizarin, alizarin Red S and PGMI-004A; for screening outcome (PGAM1 primary screen, enolase secondary screen): library screen with coupled PGAM1 and enolase assays
T5 construct: (His)6; made in house; host or cells: E. coli BL21(DE3)pLysS (pET53 vector)
Method: An in vitro PGAM1 assay was performed as primary screening. PGAM1 enzyme mix was prepared containing 100 mM Tris-HCl, 100 mM KCl, 5 mM MgCl2, 1 mM ADP, 0.2 mM NADH, 5 mg/ml recombinant PGAM1, 0.5 units/ml enolase, 0.5 units/ml recombinant pyruvate kinase M1, and 0.1 units/ml recombinant LDH. 3-PG was added last at the final concentration of 2 mM to initiate the reaction. […] An in vitro enolase assay as secondary screening was also performed. Enolase enzyme mix was prepared containing 100 mM Tris-HCl, 100 mM KCl, 5 mM MgCl2, 1 mM ADP, 0.2 mM NADH, 0.5 units/ml enolase, 0.5 units/ml recombinant pyruvate kinase M1, and 0.1 units/ml recombinant LDH. 2-PG was added last at the final concentration of 2 mM to initiate the reaction. […] Assay was carried out in Tris-HCl buffer (10 mM Tris, pH 7.4, 100 mM NaCl) containing 5% DMSO.
PGAM1 activity was measured by multiple enzymes coupled assay. PGAM1 enzyme mix containing 100 mM Tris-HCl, 100 mM KCl, 5 mM MgCl2, 1 mM ADP, 0.2 mM NADH, 5 mg/ml recombinant PGAM1, 0.5 units/ml enolase, 0.5 units/ml recombinant pyruvate kinase M1, and 0.1 units/ml recombinant LDH was prepared. 3-PG was added last at a final concentration of 2 mM to initiate the reaction.

H1299 cells = assay: Cell proliferation assay, H1299; format: cell-based, human; conditions: H1299 cells
Method: (§2) For leukemia cell proliferation assay, 10×10^4 cells were seeded in non-tissue culture coated 6-well plate and incubated at 37° C. for indicated times. Cell numbers were counted by trypan blue exclusion under a microscope (×40) at indicated times and the percentage of cell proliferation was determined by comparing PGAM1 knockdown cells to pLKO.1 vector expressing cells. […] Cell viability was determined by counting drug-treated cells compared to DMSO-treated control cells with trypan blue exclusion under a microscope (×40) and by using CellTiter96Aqueous One solution proliferation kit (Promega). For adherent cell proliferation assay such as H1299 and MDA-MB231 cells, 5×10^4 cells were seeded in 6-well plate 24 h before the assay starts and were cultured at 37° C. 24 h after seeding, cells were treated with 5 μM Methyl-2PG and incubated at 37° C. for indicated times. Cell proliferation was determined by the increase in cell number indicated times after the treatment starts compared to that at the treatment starts for each cell line (T=0). Cell numbers were counted by trypan blue exclusion under a microscope (×40). For adherent cell viability assay with trypan blue exclusion, 5×10^4 cells were seeded in 6-well plate 24 h before the assay starts and were cultured at 37° C. […] Cell viability was determined by counting drug-treated cells compared to DMSO-treated control cells with trypan blue exclusion under a microscope (×40). For MTT cell viability assay of adherent cells, 5×10^3 cells were seeded in 96-well plate 24 h before the assay starts and were cultured at 37° C. […] Cell viability was determined by using CellTiter96Aqueous One solution proliferation kit (Promega).

[6] = system: human leukemia KG1a cells; assay: Cell proliferation/viability assay, KG1a; format: cell-based; conditions: increasing concentrations (72h)
Method: as §2, with “(×40).” for “(×40). For adherent cell viability assay with trypan blue exclusion, 5×10^4 cells were seeded in 6-well plate 24 h before the assay starts and were cultured at 37° C.”, “(×40).” for “(×40). For MTT cell viability assay of adherent cells, 5×10^3 cells were seeded in 96-well plate 24 h before the assay starts and were cultured at 37° C.”

T5 sequence (P18669 whole entry): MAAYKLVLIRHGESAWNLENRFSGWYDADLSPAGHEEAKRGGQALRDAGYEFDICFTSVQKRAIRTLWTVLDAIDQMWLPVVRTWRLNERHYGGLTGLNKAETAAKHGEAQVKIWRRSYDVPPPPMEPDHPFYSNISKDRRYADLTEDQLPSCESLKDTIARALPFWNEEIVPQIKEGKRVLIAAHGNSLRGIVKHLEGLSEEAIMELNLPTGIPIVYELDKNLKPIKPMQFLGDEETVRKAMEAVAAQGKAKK
PGAM1, sequence (P18669 whole entry): as above
T4 sequence (P11413 whole entry): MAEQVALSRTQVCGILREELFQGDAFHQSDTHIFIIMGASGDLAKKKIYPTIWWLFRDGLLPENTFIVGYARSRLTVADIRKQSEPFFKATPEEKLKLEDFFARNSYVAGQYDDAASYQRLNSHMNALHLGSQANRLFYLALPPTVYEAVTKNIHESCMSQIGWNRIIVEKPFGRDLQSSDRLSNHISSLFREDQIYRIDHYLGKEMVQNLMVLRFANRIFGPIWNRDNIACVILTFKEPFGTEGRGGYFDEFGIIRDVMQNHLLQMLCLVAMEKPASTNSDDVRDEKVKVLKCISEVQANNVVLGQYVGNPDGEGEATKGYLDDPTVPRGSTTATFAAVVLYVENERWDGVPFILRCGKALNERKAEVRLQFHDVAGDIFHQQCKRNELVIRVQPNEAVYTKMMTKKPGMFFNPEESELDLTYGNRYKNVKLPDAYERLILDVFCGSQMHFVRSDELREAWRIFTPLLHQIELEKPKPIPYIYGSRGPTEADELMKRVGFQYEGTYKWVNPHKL

O=C(O)[C@@H](CO)OP(=O)(O)O [2-PG, 2-phosphoglycerate]
6PGD enzyme activity ([1]; 2-PG treatment, H1299 cell lysates or r6PGD): did not affect 6PGD enzyme activity | enzyme activity of recombinant PHGDH (rPHGDH) ([2]; increasing concentrations of 2-PG): increased enzyme activity of recombinant PHGDH | PHGDH activity ([2]; ~15 μM 2-PG): did not significantly affect PHGDH activity | PHGDH enzyme activity ([2]; ~45 μM or ~60 μM 2-PG, H1299 PGAM1 knockdown cell lysates): higher PHGDH enzyme activity

O=C(O)[C@H](O)COP(=O)(O)O [3-PG, 3-phosphoglycerate]
6PGD melting temperature (Tm) (6PGD; increasing concentrations, 100 μM to 25 mM): raises 6PGD melting temperature (Tm) in a dose-dependent manner | Kd (6PGD; read-out: Kd for interaction with 6PGD): 460 ± 40 µM | Ki ([1]; Dixon plot, read-out: inhibition constant (Ki) for 6PGD): 489 ± 13 µM | mode of 6PGD inhibition ([1]; Lineweaver-Burk plot, ~250 μM 3-PG, ~35 μM 6-PG): competitive inhibitor | 6PGD enzyme activity ([1]; ~60 μM 3-PG (physiological), H1299 cell lysates or recombinant 6PGD): do not significantly affect 6PGD enzyme activity | 6PGD enzyme activity ([1]; ~250 μM 3-PG, H1299 cell lysates or recombinant 6PGD): decreased enzyme activity of 6PGD | G6PD activity [3]: did not significantly affect G6PD activity

N#C/C(=C/c1ccc(O)c(O)c1)C(=O)NCc1ccccc1 [AG490]
Y26 phosphorylation of PGAM1 [4]: decreased Y26 phosphorylation of PGAM1

C#CCCCC(=O)OC(C)(C)C1CCC2(CO2)C(OC(=O)NC(Cc2c[nH]c3ccccc23)C(=O)OCc2ccccc2)C1 (stereo not shown) [MJE3]
PGAM1 activity (reported) (PGAM1; Evans et al., 2007, 2005): specifically inhibits PGAM1 activity exclusively in intact cells | cancer cell proliferation (reported) (PGAM1): attenuates cancer cell proliferation

CN1CCN(c2ccc3nc(-c4c(N)c5c(F)cccc5[nH]c4=O)[nH]c3c2)CC1 [TKI258]
Y26 phosphorylation of PGAM1 [4]: decreased Y26 phosphorylation of PGAM1

O=C1c2ccccc2C(=O)c2c1cc(S(=O)(=O)O)c(O)c2O [alizarin Red S, 3,4-dihydroxy-9,10-dioxo-9,10-dihydroanthracene-2-sulfonic acid]
relative PGAM1 inhibitory potency in vitro [5]: more potent PGAM1 inhibitory potential compared to alizarin | relative PGAM1 inhibitory potency in vitro ([5]; listed as Alizarin Red S): more potent PGAM1 inhibitor

O=C1c2ccccc2C(=O)c2c1ccc(O)c2O [alizarin, 1,2-Dihydroxyanthraquinone]
screening outcome (PGAM1 primary screen, enolase secondary screen) [5]: identified as PGAM1 inhibitors | cell proliferation (H1299 cells): decreased proliferation | cell proliferation [6]: decreased proliferation

Oc1c(Cl)cc(Cl)c(Cl)c1Cc1c(O)c(Cl)cc(Cl)c1Cl [hexachlorophene]
screening outcome (PGAM1 primary screen, enolase secondary screen) [5]: identified as PGAM1 inhibitors

O=CC=Cc1ccc(O)cc1 [p-hydroxycinnamaldehyde]
screening outcome (PGAM1 primary screen, enolase secondary screen) [5]: identified as PGAM1 inhibitors
